From article PMC3288743 (Bioorganic & medicinal chemistry letters, 2012)

How the values were obtained:
[1] = target: T1, haspin (Homo sapiens, UniProt Q8TF76); experiment: TR-FRET haspin kinase inhibition assay; format: biochemical
T1 sequence (Q8TF76 1-798): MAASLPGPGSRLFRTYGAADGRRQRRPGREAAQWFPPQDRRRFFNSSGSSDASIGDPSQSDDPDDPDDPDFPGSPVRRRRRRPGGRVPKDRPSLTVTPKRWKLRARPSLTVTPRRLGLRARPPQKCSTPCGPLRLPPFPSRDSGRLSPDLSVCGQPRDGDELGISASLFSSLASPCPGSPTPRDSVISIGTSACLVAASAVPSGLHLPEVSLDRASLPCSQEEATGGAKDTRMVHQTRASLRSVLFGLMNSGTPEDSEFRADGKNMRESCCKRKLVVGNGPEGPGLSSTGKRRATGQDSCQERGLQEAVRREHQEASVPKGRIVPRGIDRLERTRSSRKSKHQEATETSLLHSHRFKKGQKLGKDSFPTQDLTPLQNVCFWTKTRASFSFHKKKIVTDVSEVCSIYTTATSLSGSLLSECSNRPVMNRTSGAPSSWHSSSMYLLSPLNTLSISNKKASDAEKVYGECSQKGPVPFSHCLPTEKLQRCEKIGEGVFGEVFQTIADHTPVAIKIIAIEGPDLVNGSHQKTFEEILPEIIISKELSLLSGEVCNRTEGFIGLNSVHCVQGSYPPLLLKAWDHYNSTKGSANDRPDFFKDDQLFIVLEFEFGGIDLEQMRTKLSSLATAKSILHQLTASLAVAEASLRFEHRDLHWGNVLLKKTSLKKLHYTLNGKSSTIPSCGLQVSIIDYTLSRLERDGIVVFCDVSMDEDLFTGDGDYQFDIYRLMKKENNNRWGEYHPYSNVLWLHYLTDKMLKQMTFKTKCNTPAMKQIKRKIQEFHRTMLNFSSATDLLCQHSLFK

[2] = test system: mouse xenograft model; settings: cited from earlier work
[3] = target: CaMK2d (Homo sapiens, UniProt Q13557); experiment: kinase panel profiling; format: biochemical; settings: read-out: inhibition of CaMK2d
Sequence of CaMK2d (Q13557 whole entry, species assumed): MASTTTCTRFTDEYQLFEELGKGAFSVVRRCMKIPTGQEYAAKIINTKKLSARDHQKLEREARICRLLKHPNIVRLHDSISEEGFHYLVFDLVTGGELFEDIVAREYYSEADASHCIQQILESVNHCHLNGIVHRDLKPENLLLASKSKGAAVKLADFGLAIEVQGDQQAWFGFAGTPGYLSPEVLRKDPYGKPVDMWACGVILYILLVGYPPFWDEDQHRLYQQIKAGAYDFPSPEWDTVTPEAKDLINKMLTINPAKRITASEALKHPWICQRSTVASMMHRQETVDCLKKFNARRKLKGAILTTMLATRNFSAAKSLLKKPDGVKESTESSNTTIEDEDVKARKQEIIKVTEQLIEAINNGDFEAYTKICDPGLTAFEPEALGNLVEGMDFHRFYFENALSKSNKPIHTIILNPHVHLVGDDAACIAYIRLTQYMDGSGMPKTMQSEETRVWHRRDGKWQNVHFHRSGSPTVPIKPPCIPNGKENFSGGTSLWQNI

[4] = target: DYRK1B (Homo sapiens, UniProt Q9Y463); experiment: kinase panel profiling; format: biochemical; settings: read-out: inhibition of DYRK1B
Sequence of DYRK1B (Q9Y463 whole entry, species assumed): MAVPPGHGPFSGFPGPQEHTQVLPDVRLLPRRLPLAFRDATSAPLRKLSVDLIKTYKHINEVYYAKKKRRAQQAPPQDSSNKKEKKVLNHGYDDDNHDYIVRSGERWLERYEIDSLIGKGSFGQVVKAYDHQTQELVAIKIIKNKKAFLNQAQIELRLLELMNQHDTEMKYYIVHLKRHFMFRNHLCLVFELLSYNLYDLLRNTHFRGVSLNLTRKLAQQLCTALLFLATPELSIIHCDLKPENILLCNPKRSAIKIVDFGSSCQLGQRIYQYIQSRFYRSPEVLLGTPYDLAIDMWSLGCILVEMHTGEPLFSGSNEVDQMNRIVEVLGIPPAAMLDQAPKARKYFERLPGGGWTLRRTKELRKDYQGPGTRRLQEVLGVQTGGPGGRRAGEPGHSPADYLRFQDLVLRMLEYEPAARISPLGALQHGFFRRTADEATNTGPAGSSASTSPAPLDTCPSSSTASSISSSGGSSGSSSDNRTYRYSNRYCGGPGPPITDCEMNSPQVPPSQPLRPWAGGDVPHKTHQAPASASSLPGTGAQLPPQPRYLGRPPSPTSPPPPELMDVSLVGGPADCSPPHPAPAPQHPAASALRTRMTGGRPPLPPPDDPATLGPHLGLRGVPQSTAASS

[5] = target: T2, DYRK3 (Homo sapiens, UniProt O43781); experiment: kinase panel profiling; format: biochemical; settings: read-out: inhibition of DYRK3
T2 sequence (O43781 1-588): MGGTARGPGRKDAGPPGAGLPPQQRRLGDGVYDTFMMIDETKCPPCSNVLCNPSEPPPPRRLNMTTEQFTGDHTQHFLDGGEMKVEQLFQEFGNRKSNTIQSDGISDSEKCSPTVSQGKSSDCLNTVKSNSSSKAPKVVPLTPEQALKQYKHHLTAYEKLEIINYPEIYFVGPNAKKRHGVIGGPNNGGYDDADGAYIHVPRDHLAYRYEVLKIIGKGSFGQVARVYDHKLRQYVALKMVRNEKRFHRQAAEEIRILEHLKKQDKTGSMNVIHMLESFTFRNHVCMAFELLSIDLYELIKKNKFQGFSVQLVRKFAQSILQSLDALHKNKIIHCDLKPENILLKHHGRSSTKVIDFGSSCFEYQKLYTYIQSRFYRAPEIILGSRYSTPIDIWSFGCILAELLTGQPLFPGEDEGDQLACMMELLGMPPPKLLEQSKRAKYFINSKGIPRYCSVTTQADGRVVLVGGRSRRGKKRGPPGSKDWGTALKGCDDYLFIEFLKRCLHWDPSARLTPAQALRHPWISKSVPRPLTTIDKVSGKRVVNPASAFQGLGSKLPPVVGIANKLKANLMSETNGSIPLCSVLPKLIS

[6] = target: CDK7-CycH-Mat1 (Homo sapiens, UniProt P50613); experiment: kinase panel profiling; format: biochemical; settings: read-out: inhibition of CDK7-CycH-Mat1
Sequence of CDK7-CycH-Mat1 (P50613 whole entry): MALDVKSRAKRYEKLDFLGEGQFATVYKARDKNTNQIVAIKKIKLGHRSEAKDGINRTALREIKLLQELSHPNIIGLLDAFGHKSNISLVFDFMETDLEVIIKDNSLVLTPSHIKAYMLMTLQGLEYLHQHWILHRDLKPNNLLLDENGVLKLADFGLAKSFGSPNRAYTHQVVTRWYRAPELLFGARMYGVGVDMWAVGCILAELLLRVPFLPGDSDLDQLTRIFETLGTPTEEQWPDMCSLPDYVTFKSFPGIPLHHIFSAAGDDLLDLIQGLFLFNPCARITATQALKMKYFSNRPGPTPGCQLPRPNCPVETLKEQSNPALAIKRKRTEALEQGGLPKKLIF
Sequence of CDK7-CycH-Mat1 (P51946 whole entry partner): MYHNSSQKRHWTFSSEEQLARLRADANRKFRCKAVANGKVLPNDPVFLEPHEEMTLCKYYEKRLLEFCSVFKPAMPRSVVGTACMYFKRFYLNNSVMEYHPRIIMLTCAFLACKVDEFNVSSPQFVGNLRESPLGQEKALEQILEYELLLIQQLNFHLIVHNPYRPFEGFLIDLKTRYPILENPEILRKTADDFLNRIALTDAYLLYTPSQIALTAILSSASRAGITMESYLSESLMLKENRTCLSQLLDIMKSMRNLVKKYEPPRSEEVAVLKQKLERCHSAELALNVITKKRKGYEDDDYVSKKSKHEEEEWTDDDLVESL
Sequence of CDK7-CycH-Mat1 (P51948 whole entry partner): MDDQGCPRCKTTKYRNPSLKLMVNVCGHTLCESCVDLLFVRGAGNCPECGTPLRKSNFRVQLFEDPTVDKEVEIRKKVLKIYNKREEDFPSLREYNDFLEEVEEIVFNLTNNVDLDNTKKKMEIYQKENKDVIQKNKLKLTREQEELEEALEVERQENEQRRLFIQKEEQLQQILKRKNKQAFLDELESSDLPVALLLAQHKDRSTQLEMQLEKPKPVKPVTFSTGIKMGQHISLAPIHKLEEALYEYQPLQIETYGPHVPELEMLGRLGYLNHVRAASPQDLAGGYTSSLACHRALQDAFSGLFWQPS

[7] = target: PASK (Homo sapiens, UniProt Q96RG2); experiment: kinase panel profiling; format: biochemical; settings: read-out: inhibition of PASK
[8] = target: CK1d (Homo sapiens, UniProt P48730); experiment: kinase panel profiling; format: biochemical; settings: read-out: inhibition of CK1d
Sequence of CK1d (P48730 whole entry): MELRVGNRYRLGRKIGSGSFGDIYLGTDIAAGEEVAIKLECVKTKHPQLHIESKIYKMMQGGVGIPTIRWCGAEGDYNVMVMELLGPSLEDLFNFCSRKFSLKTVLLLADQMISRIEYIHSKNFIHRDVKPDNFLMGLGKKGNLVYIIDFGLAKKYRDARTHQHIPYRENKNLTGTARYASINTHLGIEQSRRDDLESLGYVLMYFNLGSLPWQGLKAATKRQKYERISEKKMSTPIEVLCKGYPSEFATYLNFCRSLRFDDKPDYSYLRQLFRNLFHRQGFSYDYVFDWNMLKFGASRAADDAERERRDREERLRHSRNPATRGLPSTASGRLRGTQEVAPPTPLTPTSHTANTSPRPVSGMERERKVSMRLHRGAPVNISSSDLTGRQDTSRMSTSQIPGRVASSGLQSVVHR

[9] = target: T3, PKD3 (Homo sapiens, UniProt O94806); experiment: kinase panel profiling; format: biochemical; settings: read-out: inhibition of PKD3
T3 sequence (O94806 1-890): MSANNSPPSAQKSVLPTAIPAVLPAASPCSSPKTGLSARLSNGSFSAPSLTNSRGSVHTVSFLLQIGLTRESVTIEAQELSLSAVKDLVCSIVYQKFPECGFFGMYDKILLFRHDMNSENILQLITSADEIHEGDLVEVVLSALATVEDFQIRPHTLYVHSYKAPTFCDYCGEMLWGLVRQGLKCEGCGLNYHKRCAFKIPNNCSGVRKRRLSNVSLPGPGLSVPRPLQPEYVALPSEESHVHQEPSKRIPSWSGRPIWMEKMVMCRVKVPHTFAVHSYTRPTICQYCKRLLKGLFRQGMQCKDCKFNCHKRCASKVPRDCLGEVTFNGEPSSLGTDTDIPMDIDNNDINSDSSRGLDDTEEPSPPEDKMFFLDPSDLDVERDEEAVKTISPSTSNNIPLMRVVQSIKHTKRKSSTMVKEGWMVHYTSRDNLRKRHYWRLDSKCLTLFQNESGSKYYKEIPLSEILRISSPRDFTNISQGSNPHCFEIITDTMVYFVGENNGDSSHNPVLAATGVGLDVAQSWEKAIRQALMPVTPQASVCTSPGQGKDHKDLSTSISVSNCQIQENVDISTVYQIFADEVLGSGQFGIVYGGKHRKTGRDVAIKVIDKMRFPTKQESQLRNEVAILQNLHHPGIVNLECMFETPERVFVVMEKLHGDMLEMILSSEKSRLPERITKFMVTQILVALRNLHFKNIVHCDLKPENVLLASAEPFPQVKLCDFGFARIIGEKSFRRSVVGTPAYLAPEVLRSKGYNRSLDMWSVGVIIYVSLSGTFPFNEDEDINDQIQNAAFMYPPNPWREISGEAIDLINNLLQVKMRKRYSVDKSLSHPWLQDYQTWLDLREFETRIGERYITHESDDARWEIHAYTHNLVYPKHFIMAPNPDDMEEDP

[10] = target: PIM1 (Homo sapiens, UniProt P11309); experiment: kinase panel profiling; format: biochemical; settings: read-out: inhibition of PIM1
Sequence of PIM1 (P11309 whole entry, species assumed): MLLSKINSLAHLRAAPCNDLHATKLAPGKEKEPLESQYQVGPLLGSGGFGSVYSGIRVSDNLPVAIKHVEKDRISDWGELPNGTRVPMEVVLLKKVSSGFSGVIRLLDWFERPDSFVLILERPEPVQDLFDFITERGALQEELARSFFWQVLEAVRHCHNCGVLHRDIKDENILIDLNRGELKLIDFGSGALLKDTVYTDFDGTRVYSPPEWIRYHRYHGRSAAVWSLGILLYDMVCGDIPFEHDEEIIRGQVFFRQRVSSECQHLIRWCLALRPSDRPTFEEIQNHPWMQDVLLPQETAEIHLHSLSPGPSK

[11] = target: T4, cGK2 (Homo sapiens, UniProt Q13237); experiment: kinase panel profiling; format: biochemical; settings: read-out: inhibition of cGK2
T4 sequence (Q13237 1-762): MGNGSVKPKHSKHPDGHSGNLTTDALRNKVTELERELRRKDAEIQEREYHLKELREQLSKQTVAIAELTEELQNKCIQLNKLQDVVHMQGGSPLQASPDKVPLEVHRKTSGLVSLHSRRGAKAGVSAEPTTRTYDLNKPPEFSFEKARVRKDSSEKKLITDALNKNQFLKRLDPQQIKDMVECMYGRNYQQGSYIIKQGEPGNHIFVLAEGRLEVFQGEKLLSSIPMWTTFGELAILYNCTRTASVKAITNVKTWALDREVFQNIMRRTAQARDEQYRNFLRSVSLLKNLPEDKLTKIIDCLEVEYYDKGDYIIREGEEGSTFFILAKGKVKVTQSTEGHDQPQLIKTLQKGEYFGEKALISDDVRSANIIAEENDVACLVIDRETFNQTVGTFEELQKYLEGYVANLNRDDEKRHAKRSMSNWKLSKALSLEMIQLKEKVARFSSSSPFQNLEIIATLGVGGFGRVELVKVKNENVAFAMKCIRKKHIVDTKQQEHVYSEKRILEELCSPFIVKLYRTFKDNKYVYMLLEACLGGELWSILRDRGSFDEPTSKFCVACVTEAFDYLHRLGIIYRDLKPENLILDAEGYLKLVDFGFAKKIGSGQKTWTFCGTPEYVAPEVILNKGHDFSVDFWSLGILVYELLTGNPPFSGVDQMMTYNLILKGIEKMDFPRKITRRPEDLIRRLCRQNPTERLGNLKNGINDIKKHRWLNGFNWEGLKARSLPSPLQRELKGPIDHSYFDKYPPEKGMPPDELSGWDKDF

[12] = target: T1, haspin; experiment: biochemical; settings: read-out: inhibition of haspin
[13] = target: DYRK1A (Homo sapiens, UniProt Q13627); experiment: kinase panel profiling; format: biochemical; settings: read-out: inhibition of DYRK1A
[14] = target: CLK1 (Homo sapiens, UniProt P49759); experiment: kinase panel profiling; format: biochemical; settings: read-out: inhibition of CLK1
Sequence of CLK1 (P49759 whole entry): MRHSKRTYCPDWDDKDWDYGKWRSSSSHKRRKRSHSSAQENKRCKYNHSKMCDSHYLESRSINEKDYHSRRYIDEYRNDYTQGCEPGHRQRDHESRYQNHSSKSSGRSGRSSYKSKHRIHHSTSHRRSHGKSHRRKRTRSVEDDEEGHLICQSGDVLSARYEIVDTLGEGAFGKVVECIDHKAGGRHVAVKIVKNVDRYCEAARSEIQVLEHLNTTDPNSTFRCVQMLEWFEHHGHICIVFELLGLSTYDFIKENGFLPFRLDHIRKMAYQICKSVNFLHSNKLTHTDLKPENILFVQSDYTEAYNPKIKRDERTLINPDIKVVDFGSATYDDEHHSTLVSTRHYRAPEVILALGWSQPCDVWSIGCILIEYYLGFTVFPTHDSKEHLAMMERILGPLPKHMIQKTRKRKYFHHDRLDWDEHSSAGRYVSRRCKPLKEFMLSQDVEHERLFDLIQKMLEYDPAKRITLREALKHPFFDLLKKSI

[15] = target: CLK2 (Homo sapiens, UniProt P49760); experiment: kinase panel profiling; format: biochemical; settings: read-out: inhibition of CLK2
Sequence of CLK2 (P49760 whole entry, species assumed): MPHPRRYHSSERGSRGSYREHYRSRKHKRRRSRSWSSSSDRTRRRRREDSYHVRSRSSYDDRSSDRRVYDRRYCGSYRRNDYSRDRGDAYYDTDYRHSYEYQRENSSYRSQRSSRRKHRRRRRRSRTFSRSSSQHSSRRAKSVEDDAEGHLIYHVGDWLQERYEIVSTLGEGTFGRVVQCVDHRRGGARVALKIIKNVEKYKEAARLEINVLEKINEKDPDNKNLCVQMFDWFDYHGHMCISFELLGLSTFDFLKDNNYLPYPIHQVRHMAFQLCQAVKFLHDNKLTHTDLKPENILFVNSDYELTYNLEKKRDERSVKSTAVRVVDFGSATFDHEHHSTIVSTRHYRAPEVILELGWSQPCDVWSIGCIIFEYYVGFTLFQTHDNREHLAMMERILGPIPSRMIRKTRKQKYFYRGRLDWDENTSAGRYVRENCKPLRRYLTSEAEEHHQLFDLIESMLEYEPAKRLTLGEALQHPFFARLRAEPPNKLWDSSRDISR

[16] = target: CaMK2b (Homo sapiens, UniProt Q13554); experiment: kinase panel profiling; format: biochemical; settings: read-out: inhibition of CaMK2b
Sequence of CaMK2b (Q13554 whole entry, species assumed): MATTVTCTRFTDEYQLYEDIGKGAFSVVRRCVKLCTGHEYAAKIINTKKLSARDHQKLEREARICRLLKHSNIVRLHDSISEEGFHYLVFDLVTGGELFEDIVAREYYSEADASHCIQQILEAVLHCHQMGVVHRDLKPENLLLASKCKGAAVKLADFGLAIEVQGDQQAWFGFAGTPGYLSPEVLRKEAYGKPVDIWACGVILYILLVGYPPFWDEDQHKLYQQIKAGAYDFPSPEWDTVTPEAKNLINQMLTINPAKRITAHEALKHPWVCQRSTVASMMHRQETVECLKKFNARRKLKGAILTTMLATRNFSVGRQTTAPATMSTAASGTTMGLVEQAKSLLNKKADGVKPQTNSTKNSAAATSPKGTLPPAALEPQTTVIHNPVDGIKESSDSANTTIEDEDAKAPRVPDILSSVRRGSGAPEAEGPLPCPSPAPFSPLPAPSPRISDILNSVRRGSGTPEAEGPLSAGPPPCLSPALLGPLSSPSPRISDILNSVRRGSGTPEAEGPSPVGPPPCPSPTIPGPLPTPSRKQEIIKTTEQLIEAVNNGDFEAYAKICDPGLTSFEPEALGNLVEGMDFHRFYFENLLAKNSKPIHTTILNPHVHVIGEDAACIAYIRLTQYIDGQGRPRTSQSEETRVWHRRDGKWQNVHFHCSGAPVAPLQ

Cc1nccc2c1[nH]c1cc(OCCCN)ccc12 [7a]
haspin inhibition at 10 µM [1]: inactive

Cc1nccc2c1[nH]c1cc(OCCCCN)ccc12 [7b]
haspin inhibition at 10 µM [1]: inactive

CCCNc1ccc2ncc(-c3ccc4[nH]ncc4c3)n2n1 [CHR-6494]
anti-tumor activity [2]: displayed anti-tumor activity

COc1ccc2c3ccnc(C(F)(F)F)c3n(CCCCN)c2c1 [compound 42]
inhibition at 10 µM [3]: ≥ 90%
inhibition at 10 µM [4]: ≥ 90%
inhibition at 10 µM [5]: ≥ 90%
inhibition at 10 µM [6]: ≥ 90%
inhibition at 10 µM [7]: ≥ 90%
inhibition at 10 µM [8]: ≥ 90%
inhibition at 10 µM [9]: ≥ 90%
inhibition at 10 µM [10]: ≥ 90%
inhibition at 10 µM [11]: ≥ 90%
inhibition at 10 µM [12]: ≥ 90%
inhibition at 10 µM [13]: ≥ 90%
inhibition at 10 µM [14]: ≥ 90%
inhibition at 10 µM [15]: ≥ 90%
inhibition at 10 µM [16]: ≥ 90%
